# Test results published in patent US20140329766A1, “Prophylactic Compositions for Management of Microbial Infections in Patients with Brain Injury” (UTI LIMITED PARTNERSHIP, priority 2011, published 2014).
# Columns and labels:
# [1] = Lung injury assessment (MPO activity, lung edema); type: in vivo; details: post-ischemic mice 24 h after MCAO
# Method: The lungs of anaesthetized mice were removed after specified period of reperfusion. For determination of lung myeloperoxidase (MPO) activity (an indicator of lung inflammation), samples of lungs were removed, weighed, immediately frozen in liquid nitrogen and stored at −80° C. until the MPO activity assay was performed. Myeloperoxidase activity was measured using an assay previously described (Krawisz et al., 1984) and modified to be used in a 96-well microtitre plate. Values are expressed as units of MPO activity per milligram of lung tissue (U/mg tissue). For determination of lung fluid content, the left lobes were dissected gently dried using a blotting paper, and weighed. The tissues were dried at 55° C. for 72 h and reweighed. The percentage of lung weight attributed to fluid was calculated as an indicator of lung edema formation.
# The lung tissues were removed at 24 h post-MCAO and assessed for: (i) myeloperoxidase activity as a measure of neutrophil infiltration, and (ii) for lung edema.
# [2] = Alanine transaminase (ALT) activity assay in peripheral blood; type: in vivo; details: post-ischemic mice after the single dose of α-GalCer (FIG. 45B)
# Method: Separate groups of control sham-operated mice received a single-dose administration of the α-GalCer compositions following the procedures, both as outlined in Example 7 (one composition/one group of four mice). Also, separate groups of post-ischemic mice received a single-dose administration of the α-GalCer compositions about 2 h after the MCAO events, following the procedures as outlined in Example 7 (one composition/one group of four mice). All animals were euthenized 24 h after MCAO events, and their peripheral blood was harvested. The levels of alanine transaminase (ALT) in the samples were determined with an ALT activity assay following the manufacturer's instructions to determine the rates of oxidation of NADH to NAD^+.
smiles,measurement,setting,value
"CCCCCCCCCCCCCCCCCCCCCCCCCCC(=O)N[C@@H](COC1OC(CO)C(O)C(O)C1O)[C@H](O)[C@H](O)CCCCCCCCCCCCCC (stereo partly drawn) [α-GalCer, α-galactosylceramide]",stroke-induced neutrophil pulmonary influx (MPO activity in lung),[1]; 2 μg/mouse i.v. 2 h after MCAO (FIG. 43B),reduced
same,lung edema,[1]; 2 μg/mouse i.v. 2 h after MCAO (FIG. 43C),reduced
same,liver enzyme (ALT) levels within the blood,[2],no significant difference
